Key:
[1] = Maximum tolerated dose of BNC105P by intravenous infusion in patients; assay type: in vivo, human; settings: intravenous infusion over 10 minutes, days 1 and 8 of 21 day cycle, with 10 mg oral everolimus daily
Method: Patients in the BNC105P in combination with everolimus study group (the “combination arm”) were administered 10 mg oral everolimus daily. On days 1 and 8 of the 21 day cycle period, the patients were administered 16 mg/m^2 BNC105P, which had been determined to be the maximum tolerated dose, by intravenous infusion over a 10 minute period (FIG. 1). Treatment was continued until disease progressed, intolerable toxicity became apparent, or until consent was withdrawn. A control group of patients were administered with everolimus alone.

[2] = tested on: tumour endothelial cells (activated) and normal endothelial cells (quiescent); test: Potency against activated versus quiescent endothelial cells; assay type: cell-based
[3] = tested on: Metastatic Clear Cell Renal Cell Carcinoma; test: Disruptor-1 trial: BNC105P in combination with everolimus, progression free survival; assay type: in vivo, human; settings: all patients; 10 mg oral everolimus daily, with or without 16 mg/m^2 BNC105P i.v. on days 1 and 8 of 21 day cycle; FIG. 2
From the text: A control group of patients received everolimus alone.
The medical histories of patients were obtained prior to commencement of the study.
All patients in the study were followed for disease progression and survival. Prior to commencing treatment, patients enrolled in the study were subject to disease assessment including: CT of chest, abdomen and pelvis; CT of the head or brain MRI; bone scan; echocardiography (ECHO) or multiple gated acquisition scan (MUGA). At every 3 cycles of treatment, CT scans of chest, abdomen and pelvis, and bone scans were performed to determine disease progression.
Time to disease progression was determined as a measurement from the start of the treatment until the criteria for disease progression is met (or death occurs), taking as reference the smallest measurements recorded since the treatment started. […]

tubulin = test: Tubulin polymerisation inhibition; assay type: biochemical

COc1cc(C(=O)c2c(C)oc3c(OP(=O)([O-])[O-])c(OC)ccc23)cc(OC)c1OC.[Na+].[Na+] [BNC105P, disodium [6-methoxy-2-methyl-3-(3,4,5-trimethoxybenzoyl)-1-benzofuran-7-yl] phosphate]
maximum tolerated dose [1]: 16 mg/m^2

COc1ccc(/C=C\c2cc(OC)c(OC)c(OC)c2)cc1O [Combretastatin A4, reference compound]
selectivity between activated (tumour) and quiescent (normal) endothelial cells (in words) [2]: equally potent against quiescent and activated endothelial cells

CO[C@H]1C[C@@H]2CC[C@@H](C)[C@@](O)(O2)C(=O)C(=O)N2CCCC[C@H]2C(=O)O[C@H]([C@H](C)C[C@@H]2CC[C@@H](OCCO)[C@H](OC)C2)CC(=O)[C@H](C)/C=C(\C)[C@@H](O)[C@@H](OC)C(=O)[C@H](C)C[C@H](C)/C=C/C=C/C=C/1C [everolimus]
patients free of disease progression at 6 months [3]: 20 patients

COc1cc(C(=O)c2c(C)oc3c(O)c(OC)ccc23)cc(OC)c1OC [formula III, 2-methyl-7-hydroxy-3-(3,4,5-trimethoxybenzoyl)-6-methoxybenzofuran]
tubulin polymerisation inhibition (in words) (tubulin): potent tubulin polymerisation inhibitors
selectivity between activated (tumour) and quiescent (normal) endothelial cells (in words) [2]: show selectivity towards tumor endothelial cells (activated) over normal endothelial cells (quiescent)

From patent publication US10159659B2, “Predicting response to cancer therapy” (BIONOMICS LIMITED, priority 2014, dated 2018)
